Results on 2 molecules are retold here after PubChem BioAssay AID1845198 (Molecular Pharmacology Branch, DTP, NCI, 2023).

The test system of the experiment is 425362-245-T-J1 tumor spheroids, viability % test/control. Put plainly: Anticancer human tumor 425362-245-T-J1 patient-derived melanoma cell line growth inhibition. The note with it: spheroids with HUVEC and MSC; for viability, T/C: stronger effect = lower value. An outline of the steps: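 Single agents and combinations were tested on spheroids built from tumor cells plus HUVEC and hMSC, at half-log dilutions starting at or near clinical Cmax, else 10 microM; final DMSO 0.25% (v/v).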

SMILES strings stand for the structures. Where “and” joins values, the source holds several entries; their conditions need not be identical. Equal values may be shown once.
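Also: spheroids exposed to agents for 7 days.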
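For viability, T/C in this document: 100% = DMSO vehicle control viability.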

For orientation: IC50 means the concentration needed to halve the response being measured. Usually viability, T/C stands for the ratio of treated to control. Take `CC1COCCN1c1cc(-c2ccnn2C)c2ccnc(-c3ccn[nH]3)c2n1` (configuration not stated) + COc1cc2c(cc1O)CCNC21CSC2c3c(OC(C)=O)c(C)c4c(c3C(COC1=O)N1C(O)C3Cc5cc(C)c(OC)c(O)c5C(C21)N3C)OCO4: the IC50 by setting is: (curve of first compound, second compound 30 pM) < 31.6 nM; (curve of first compound, second compound 94.9 pM) < 31.6 nM; (curve of first compound, second compound 0.0003 µM) < 31.6 nM; (curve of first compound, second compound 0.000949 µM) < 31.6 nM; (curve of first compound, second compound 0.003 µM) < 31.6 nM. The viability, T/C is 31.8% (second compound 30 pM, first compound 0.0316 µM); 7.92% (second compound 30 pM, first compound 0.1 µM); 5.31% (second compound 30 pM, first compound 0.316 µM); 5.63% (second compound 30 pM, first compound 1 µM); 6.73% (second compound 30 pM, first compound 3.16 µM); 7.04% (second compound 30 pM, first compound 10 µM). In addition, the viability, T/C runs as follows: (second compound 94.9 pM, first compound 0.0316 µM) 17.9%; (second compound 94.9 pM, first compound 0.1 µM) 5%; (second compound 94.9 pM, first compound 0.316 µM) 4.08%; (second compound 94.9 pM, first compound 1 µM) 3.64%; (second compound 94.9 pM, first compound 3.16 µM) 5.29%; (second compound 94.9 pM, first compound 10 µM) 5.35%. Moreover, the viability, T/C is, setting by setting: (second compound 0.0003 µM, first compound 0.0316 µM) 2.05%; (second compound 0.0003 µM, first compound 0.1 µM) 1.46%; (second compound 0.0003 µM, first compound 0.316 µM) 1.47%; (second compound 0.0003 µM, first compound 1 µM) 1.57%; (second compound 0.0003 µM, first compound 3.16 µM) 2.68%; (second compound 0.0003 µM, first compound 10 µM) 2.88%. Besides, the viability, T/C is, setting by setting: (second compound 0.000949 µM, first compound 0.0316 µM) 0.27%; (second compound 0.000949 µM, first compound 0.1 µM) 0.17%; (second compound 0.000949 µM, first compound 0.316 µM) 0.15%; (second compound 0.000949 µM, first compound 1 µM) 0.08%; (second compound 0.000949 µM, first compound 3.16 µM) 0.09%; (second compound 0.000949 µM, first compound 10 µM) 0.58%. Further, the viability, T/C reads like this: (second compound 0.003 µM, first compound 0.0316 µM) 0.58%; (second compound 0.003 µM, first compound 0.1 µM) 0.6%; (second compound 0.003 µM, first compound 0.316 µM) 0.55%; (second compound 0.003 µM, first compound 1 µM) 0.47%; (second compound 0.003 µM, first compound 3.16 µM) 0.47%; (second compound 0.003 µM, first compound 10 µM) 0.86%.

As to `COc1ccc([C@@H](O)c2cc(-c3ncnc4cc(N5CCOCC5)ccc34)c(F)cc2Cl)nn1`, the viability, T/C is 101% and 96.8% and 105% (compound 0.0316 µM); 92.6% and 110% and 104% (compound 0.1 µM); 90.7% and 98.8% and 92.3% (compound 0.316 µM); 65.5% and 76.1% and 72.6% (compound 1 µM); 38% and 44.5% and 42.9% (compound 3.16 µM); 18.8% and 22.8% and 19.7% (compound 10 µM). Under “curve of compound”, the IC50 is 1930 nM and 2520 nM and 2400 nM.
